Series [1] is described as follows: Cytotoxicity against dog MDCK cells assessed as reduction in cell viability. Format: cell-based, Canis lupus familiaris.
Another series relates to Influenza A virus. Nature of the series: Antiviral activity against Influenza A virus (H1N1) infected in dog MDCK cells assessed as inhibition of surface glycoprotein hemagglutinin. Type of series: functional, organism-based.
Series [2] in a line: Selectivity index, ratio of CC50 for cytotoxicity against dog MDCK cells to IC50 for antiviral activity against Influenza A virus […] infected in dog MDCK cells. Format: toxicity, cell-based. The note with it: read-out: Selectivity Index.
Series [3] can be described thus: Cmax in Balb/c mouse at 25 mg/kg, po administered as single dose. Type of series: ADME, organism-based. On the set-up: route oral, dose 25 mg/kg. The settings on record: in vivo.
The nature of series [4]: Half life in Balb/c mouse at 25 mg/kg, po administered as single dose. Type of series: ADME, organism-based. The note with it: in vivo.
Series [5] in a line: AUC (0 to infinity) in Balb/c mouse at 25 mg/kg, po administered as single dose. Format: ADME, organism-based. On the set-up: time infinity, route oral, dose 25 mg/kg. The settings on record: in vivo.
Series [6] is described as follows: Tmax in Balb/c mouse at 25 mg/kg, po administered as single dose. Format: ADME, organism-based. The note with it: in vivo.
In the next series the target is hERG (KCNH2) (Homo sapiens, UniProt Q12809). Description: Inhibition of human ERG at 10 uM.
Chain of hERG (KCNH2) (Q12809 whole entry): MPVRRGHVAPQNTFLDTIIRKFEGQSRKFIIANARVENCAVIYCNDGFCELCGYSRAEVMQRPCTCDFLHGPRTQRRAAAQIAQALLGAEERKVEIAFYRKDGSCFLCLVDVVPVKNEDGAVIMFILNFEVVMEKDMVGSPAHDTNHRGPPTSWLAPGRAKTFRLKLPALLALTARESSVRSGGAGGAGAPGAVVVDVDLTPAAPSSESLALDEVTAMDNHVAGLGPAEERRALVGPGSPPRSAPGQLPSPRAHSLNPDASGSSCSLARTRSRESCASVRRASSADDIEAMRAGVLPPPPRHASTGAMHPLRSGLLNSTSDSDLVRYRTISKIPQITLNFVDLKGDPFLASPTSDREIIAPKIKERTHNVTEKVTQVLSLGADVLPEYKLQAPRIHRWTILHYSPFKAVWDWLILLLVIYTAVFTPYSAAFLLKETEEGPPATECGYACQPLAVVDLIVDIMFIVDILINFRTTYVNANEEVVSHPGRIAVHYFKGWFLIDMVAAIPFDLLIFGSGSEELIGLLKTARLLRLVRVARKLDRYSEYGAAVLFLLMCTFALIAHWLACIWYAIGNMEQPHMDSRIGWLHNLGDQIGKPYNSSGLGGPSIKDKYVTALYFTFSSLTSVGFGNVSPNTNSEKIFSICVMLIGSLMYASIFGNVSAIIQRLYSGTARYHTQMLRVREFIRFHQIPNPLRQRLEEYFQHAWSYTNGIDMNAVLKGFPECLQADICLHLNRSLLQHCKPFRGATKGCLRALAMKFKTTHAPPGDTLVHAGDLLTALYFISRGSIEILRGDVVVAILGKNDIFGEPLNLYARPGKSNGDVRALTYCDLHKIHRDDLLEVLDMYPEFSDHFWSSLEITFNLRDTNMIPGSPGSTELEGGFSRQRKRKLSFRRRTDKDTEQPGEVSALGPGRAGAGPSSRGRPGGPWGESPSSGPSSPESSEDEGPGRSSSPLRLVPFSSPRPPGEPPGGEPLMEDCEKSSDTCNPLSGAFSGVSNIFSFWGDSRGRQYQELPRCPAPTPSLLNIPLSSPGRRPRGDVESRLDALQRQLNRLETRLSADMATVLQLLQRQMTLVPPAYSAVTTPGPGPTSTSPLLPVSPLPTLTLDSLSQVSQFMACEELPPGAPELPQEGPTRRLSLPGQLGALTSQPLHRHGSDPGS

Molecules are shown by their SMILES.

Regarding `CC(=O)Nc1ccc2oc(-c3ccnc(C(=O)N4CCN(C(c5ccc(Cl)cc5)c5nnn(C)n5)CC4)c3)nc2c1` (stereo not drawn), in series [1], the CC50 was above 50 µM. The IC50 in the series with Influenza A virus came out at 1.71 µM.

For the compound `CC(=O)Nc1ccc2oc(-c3ccnc(C(=O)N4CCN(C(c5ccc(Br)cc5)c5nnn(C)n5)CC4)c3)nc2c1` (stereo not drawn), in series [1], the CC50 is above 50 µM. Further, in the series on Influenza A virus, the IC50 is 1.43 µM.

Consider `CC(=O)Nc1ccc2oc(-c3ccnc(C(=O)N4CCN([C@@H](c5ccccc5)c5nnn(C)n5)CC4)c3)nc2c1`, for which, in series [1], the cytotoxic concentration (CC50) is above 200 µM. Moreover, the 50% inhibitory concentration (IC50) with Influenza A virus turned out to be 1.9 µM. Also, in series [2], the selectivity ratio is above 105.

In the case of `CC(=O)Nc1ccc2oc(-c3ccnc(C(=O)N4CCN([C@H](c5ccccc5)c5nnn(C)n5)CC4)c3)nc2c1`, the half-maximal cytotoxic concentration (CC50) in series [1] stood at 144 µM. Further, in the series with Influenza A virus, the concentration for half-maximal inhibition (IC50) was determined as 0.04 µM. Also, in series [2], the selectivity ratio is 3590.

On to `CC(=O)Nc1ccc2oc(-c3ccnc(C(=O)N4CCN(C(c5cccc(F)c5)c5nnn(C)n5)CC4)c3)nc2c1` (stereo not drawn), for which the CC50 in series [1] is above 50 µM. Further, the IC50 with Influenza A virus was 2.47 µM.

`CC(=O)Nc1ccc2oc(-c3ccnc(C(=O)N4CCC5(CC4)CN(C(c4ccccc4)c4nnn(C)n4)C5)c3)nc2c1` (stereo not drawn): the half-maximal cytotoxic concentration (CC50) in series [1] is above 50 µM. For the same compound, the IC50 in the series on Influenza A virus was above 50 µM.

As for `CC(=O)Nc1ccc2oc(-c3ccnc(C(=O)N4CCN(C(c5ccc([N+](=O)[O-])cc5)c5nnn(C)n5)CC4)c3)nc2c1` (stereo not drawn), in series [1], the cytotoxic concentration (CC50) is above 50 µM. Besides, in the series with Influenza A virus, the IC50 was 7.41 µM.

In the case of `CC(=O)Nc1ccc2oc(-c3ccnc(C(=O)N4CCN([C@H](c5ccc(F)cc5)c5nnn(C)n5)CC4)c3)nc2c1`, in series [3], the highest level (Cmax) was 866 ng/mL. Moreover, in series [1], the CC50 was above 200 µM. The compound further had a half-life in series [4] of 5.84 h. The concentration for half-maximal inhibition (IC50) in the series on Influenza A virus stood at 0.03 µM. For the same compound, the AUC(0-inf) in series [5] was 1910 ng·h/mL. In series [6], the Tmax was 0.33 h. For the same compound, the inhibition at 10 µM against hERG (KCNH2) came to 13.2%. The selectivity ratio in series [2] was above 6670.

On to `CC(=O)Nc1ccc2oc(-c3ccnc(C(=O)N4CCN(C(c5ccc(C)cc5)c5nnn(C)n5)CC4)c3)nc2c1` (stereo not drawn), for which the CC50 in series [1] is above 50 µM. In addition, the 50% inhibitory concentration (IC50) with Influenza A virus amounted to 4.28 µM.

For `CC(=O)Nc1ccc2oc(-c3ccnc(C(=O)N4CC5CC4CN5C(c4ccccc4)c4nnn(C)n4)c3)nc2c1` (stereo not drawn), the half-maximal cytotoxic concentration (CC50) in series [1] is above 50 µM. Also, the half-maximal inhibitory concentration (IC50) with Influenza A virus came to 18.5 µM.

With `CC(=O)Nc1ccc2oc(-c3ccnc(C(=O)N4CCN([C@@H](c5ccc(F)cc5)c5nnn(C)n5)CC4)c3)nc2c1`, the half-maximal cytotoxic concentration (CC50) in series [1] is above 200 µM. Moreover, the IC50 with Influenza A virus was determined as 5.51 µM. Further, in series [2], the selectivity ratio is above 36.

For the compound `CC(=O)Nc1ccc2oc(-c3ccnc(C(=O)N4CCN(C(c5ccc(C(F)(F)F)cc5)c5nnn(C)n5)CC4)c3)nc2c1` (stereo not drawn), in series [1], the CC50 was above 50 µM. In addition, the IC50 with Influenza A virus is 12.8 µM.

Take `CC(=O)Nc1ccc2oc(-c3ccnc(C(=O)N4CCN(C(c5ccc(F)cc5)c5nnn(C)n5)CC4)c3)nc2c1` (stereo not drawn): the CC50 in series [1] is above 50 µM. For the same compound, the IC50 in the series with Influenza A virus turned out to be 0.27 µM.

In the case of `COc1ccc(C(c2nnn(C)n2)N2CCN(C(=O)c3cc(-c4nc5cc(NC(C)=O)ccc5o4)ccn3)CC2)cc1` (stereo not drawn), the CC50 in series [1] is above 50 µM. Further, the IC50 in the series with Influenza A virus came out at 12 µM.

As for `CC(=O)Nc1ccc2oc(-c3ccnc(C(=O)N4CC5(CCN(C(c6ccccc6)c6nnn(C)n6)CC5)C4)c3)nc2c1` (stereo not drawn), in series [1], the CC50 turned out to be 32 µM. For the same compound, the IC50 with Influenza A virus worked out at 7.41 µM.

With `CC(=O)Nc1ccc2oc(-c3ccnc(C(=O)N4CCN(C(c5nnn(C)n5)c5ccccc5F)CC4)c3)nc2c1` (stereo not drawn), the 50% cytotoxic concentration (CC50) in series [1] was above 50 µM. The IC50 in the series with Influenza A virus was determined as 7.41 µM.

Turning to `CC(=O)Nc1ccc2oc(-c3ccnc(C(=O)N4CCN(C(c5ccc(OC(F)(F)F)cc5)c5nnn(C)n5)CC4)c3)nc2c1` (stereo not drawn), in series [1], the CC50 was above 50 µM. Further, in the series on Influenza A virus, the IC50 was 3.18 µM.

For `CC(=O)Nc1ccc2oc(-c3ccnc(C(=O)N4CCC5(CC4)CCN(C(c4ccccc4)c4nnn(C)n4)CC5)c3)nc2c1` (stereo not drawn), the CC50 in series [1] was above 50 µM. Also, in the series on Influenza A virus, the half-inhibitory concentration (IC50) is above 50 µM.

`CC(=O)Nc1ccc2oc(-c3ccnc(C(=O)N4CCN(C(c5ccccc5)c5nnn(C)n5)CC4)c3)nc2c1` (racemic): in series [3], the Cmax is 572 ng/mL. Also, in series [1], the cytotoxic concentration (CC50) is above 50 µM. In series [4], this compound showed a half-life of 3.69 h. Further, the concentration for half-maximal inhibition (IC50) in the series on Influenza A virus turned out to be 0.35 µM. The compound further had an AUC(0-inf) in series [5] of 1210 ng·h/mL. Besides, the Tmax in series [6] turned out to be 0.25 h. Further, the inhibition at 10 µM on hERG (KCNH2) turned out to be 53.8%.

As to `CCOC(=O)C1=C[C@@H](OC(CC)CC)[C@H](NC(C)=O)[C@@H](N)C1` [OSELTAMIVIR], the CC50 in series [1] is above 200 µM. Further, in the series with Influenza A virus, the IC50 was determined as 3.44 µM. Moreover, in series [2], the selectivity ratio is above 58.

Regarding `NC(=O)c1ncn([C@@H]2O[C@H](CO)[C@@H](O)[C@H]2O)n1` [RIBAVIRIN], in series [1], the 50% cytotoxic concentration (CC50) was above 200 µM. The half-inhibitory concentration (IC50) in the series with Influenza A virus was 4.28 µM. For the same compound, the selectivity ratio in series [2] is above 46.

The values are drawn from ChEMBL document CHEMBL4825697, “Optimization and SAR research at the piperazine and phenyl rings of JNJ4796 as new anti-influenza A virus agents, part 1” (Eur J Med Chem, 2021).
